From patent US20220112479A1, “COMPOUNDS STABILIZING AMYLASES IN LIQUIDS” (BASF SE, priority 2018, published 2022)

Columns and labels:
Format in all cases: biochemical
[1] = target: T1, Savinase Ultra 16.0L (Lederbergia lenta, UniProt P29600); test: protease storage stability in liquid formulation (Suc-AAPF-pNA substrate); conditions: storage at 37° C.
T1 construct: purchased Sigma-Aldrich
T1 sequence (P29600 1-269): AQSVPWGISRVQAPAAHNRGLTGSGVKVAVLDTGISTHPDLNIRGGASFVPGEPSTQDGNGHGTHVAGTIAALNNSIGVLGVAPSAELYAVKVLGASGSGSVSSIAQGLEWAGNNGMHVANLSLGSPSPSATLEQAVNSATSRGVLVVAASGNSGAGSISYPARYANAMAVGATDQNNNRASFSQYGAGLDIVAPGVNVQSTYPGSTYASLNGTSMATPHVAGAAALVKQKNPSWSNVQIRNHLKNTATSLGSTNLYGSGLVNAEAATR
Experimental: Base test formulations were manufactured by making base formulations I to V by mixing the components according to Table 1.
Protease used: (S) Savinase Ultra 16.0L (CAS-No. 9014-01-1, EC-No. 232-752-2) was purchased from Sigma-Aldrich
The respective component (a) or comparative compound was added, if applicable, to the respective base formulation in amounts as indicated in Table 1.
The amount of protease as provided in Table 1 refers to active protein.
Water was added to accomplish the balance to 100.
Protease activity at certain points in time as indicated in Table 3 was be determined by employing Succinyl-Ala-Ala-Pro-Phe-p-nitroanilide (Suc-AAPF-pNA, short AAPF) as substrate. pNA is cleaved from the substrate molecule by proteolytic cleavage, resulting in release of yellow color of free pNA which was determined by measuring […]. Measurements were done at 20° C.
The proteolytic activity values provided in Table 3 were calculated referring to the value determined in the reference formulation at the time 0.
The nomenclature of formulations is as follows: the Roman number before the full stop characterizes the base formulation, the Arabian number the type of salt (A.#inventive salt (component (a)); B.# comparative compound). Zero (“0”): no salt, but diethylene glycol.

[2] = tested on: Amy1=Stainzyme; test: amylase storage stability in liquid formulation (pNP release from Ethyliden-blocked-pNPG7); set-up: key: % of activity in reference formulation at time 0; conditions: storage at 37° C.
Experimental: (§1) The storage stability of amylase was assessed at 37° C. Base test formulations were manufactured by making base formulations I to V by mixing the components according to Table 1. Amylases used: Amy1=Stainzyme, Amy2=Amplify, Amy3=Stainzyme Plus L (12L) The respective component (a) or comparative compound was added, if applicable, to the respective base formulation in amounts as indicated in Table 1. The amount of amylase as provided in Table 1 refers to active protein. Water was added to accomplish the balance to 100. […] Amylase activity at certain points in time as indicated in Table 2 was measured quantitatively by the release of the chromophore para-nitrophenol (pNP) from the substrate ([…]-blocked-pNPG7, Roche Applied Science 10880078103). The alpha-amylase degrades the substrate into smaller molecules and α-glucosidase (Roche Applied Science 11626329103), which is present in excess compared to the amylase, process these smaller products until pNP is released; the release of pNP, measured via an increase of absorption at 405 nm, is directly proportional to the amylase activity of the sample. Amylase standard: […] 120 L (Sigma 3403). […] The amylolytic activity values provided were calculated referring to the value determined in the reference formulation at the time 0. The nomenclature of formulations is as follows: the Roman number before the full stop characterizes the base formulation, the Arabian number the type of compound (A.# compound according to invention (component (a)); B.# comparative compound).

[3] = tested on: Amy2=Amplify; test: as above; set-up: key: % of activity in reference formulation at time 0; conditions: base formulation III., 1.5 wt % component (a), storage at 37° C.
Experimental: as §1

[4] = base formulation IV., 2.0 wt % component (a), 3 d
[5] = base formulation IV., 2.0 wt % component (a), 7 d
[6] = base formulation IV., 2.0 wt % component (a), 14 d
[7] = base formulation IV., 2.0 wt % component (a), 21 d
[8] = base formulation IV., 2.0 wt % component (a), 28 d
[9] = base formulation IV., 2.0 wt % component (a), 42 d
[10] = base formulation IV., 2.0 wt % component (a), T0
[11] = base formulation I., 1.5 wt % component (a), 3 d
[12] = base formulation I., 1.5 wt % component (a), 7 d
[13] = base formulation I., 1.5 wt % component (a), 14 d
[14] = base formulation I., 1.5 wt % component (a), 21 d
[15] = base formulation I., 1.5 wt % component (a), 28 d
[16] = base formulation I., 1.5 wt % component (a), 42 d
[17] = base formulation I., 1.5 wt % component (a), T0
[18] = base formulation III., 1.5 wt % component (a), 3 d
[19] = base formulation III., 1.5 wt % component (a), 7 d
[20] = base formulation III., 1.5 wt % component (a), 14 d
[21] = base formulation III., 1.5 wt % component (a), 21 d
[22] = base formulation III., 1.5 wt % component (a), 28 d
[23] = base formulation III., 1.5 wt % component (a), 42 d
[24] = base formulation III., 1.5 wt % component (a), T0

**Q.** What does the source list for `CCCCOC(=O)CC(O)(CC(=O)OCCCC)C(=O)OCCCC` [A.3, Tributylcitrate]?
**A.** protease activity, referring to reference formulation at time 0 [1, 4]: 98; protease activity, referring to reference formulation at time 0 [1, 5]: 90; protease activity, referring to reference formulation at time 0 [1, 6]: 85; protease activity, referring to reference formulation at time 0 [1, 7]: 78; protease activity, referring to reference formulation at time 0 [1, 8]: 70; protease activity, referring to reference formulation at time 0 [1, 9]: 67; protease activity, referring to reference formulation at time 0 [1, 10]: 99; amylase activity, referring to reference formulation at time 0 [2, 4]: 95; amylase activity, referring to reference formulation at time 0 [2, 5]: 90; amylase activity, referring to reference formulation at time 0 [2, 6]: 84; amylase activity, referring to reference formulation at time 0 [2, 7]: 77; amylase activity, referring to reference formulation at time 0 [2, 8]: 68; amylase activity, referring to reference formulation at time 0 [2, 9]: 57; amylase activity, referring to reference formulation at time 0 [2, 10]: 98

**Q.** Which “protease activity, referring to reference formulation at time 0” value (“protease activity, referring” below) [1, 11] does the source give for `CCCCOC(=O)CC(CC(=O)OCCCC)(OC(C)=O)C(=O)OCCCC` [A.4, Acetyltributylcitrate] here?
**A.** 100

**Q.** And the “protease activity, referring” value [1, 12]?
**A.** 94

**Q.** What about the “protease activity, referring” value [1, 13] of the same molecule?
**A.** 90

**Q.** What about the “protease activity, referring” value [1, 14] of the same molecule?
**A.** 84

**Q.** And the “protease activity, referring” value [1, 15]?
**A.** 82

**Q.** And the “protease activity, referring” value [1, 16]?
**A.** 70

**Q.** What about the “protease activity, referring” value [1, 17] of the same molecule?
**A.** 102

**Q.** And the “protease activity, referring” value ([1]; base formulation II., 1.5 wt % component (a), 3 d)?
**A.** 100

**Q.** And the “protease activity, referring” value ([1]; base formulation II., 1.5 wt % component (a), 7 d)?
**A.** 95

**Q.** And the “protease activity, referring” value ([1]; base formulation II., 1.5 wt % component (a), 14 d)?
**A.** 90

**Q.** And the “protease activity, referring” value ([1]; base formulation II., 1.5 wt % component (a), 21 d)?
**A.** 85

**Q.** What about the “protease activity, referring” value ([1]; base formulation II., 1.5 wt % component (a), 28 d) of the same molecule?
**A.** 81

**Q.** What about the “protease activity, referring” value ([1]; base formulation II., 1.5 wt % component (a), 42 d) of the same molecule?
**A.** 70

**Q.** And the “protease activity, referring” value ([1]; base formulation II., 1.5 wt % component (a), T0)?
**A.** 102

**Q.** And the “protease activity, referring” value [1, 18]?
**A.** 99

**Q.** And the “protease activity, referring” value [1, 19]?
**A.** 95

**Q.** And the “protease activity, referring” value [1, 20]?
**A.** 91

**Q.** And the “protease activity, referring” value [1, 21]?
**A.** 86

**Q.** And the “protease activity, referring” value [1, 22]?
**A.** 81

**Q.** What about the “protease activity, referring” value [1, 23] of the same molecule?
**A.** 70

**Q.** And the “protease activity, referring” value [1, 24]?
**A.** 101

**Q.** And the “protease activity, referring” value ([1]; base formulation V., 2.0 wt % component (a), 3 d)?
**A.** 94

**Q.** And the “protease activity, referring” value ([1]; base formulation V., 2.0 wt % component (a), 7 d)?
**A.** 90

**Q.** What about the “protease activity, referring” value ([1]; base formulation V., 2.0 wt % component (a), 14 d) of the same molecule?
**A.** 85

**Q.** What about the “protease activity, referring” value ([1]; base formulation V., 2.0 wt % component (a), 21 d) of the same molecule?
**A.** 80

**Q.** What about the “protease activity, referring” value ([1]; base formulation V., 2.0 wt % component (a), 28 d) of the same molecule?
**A.** 76

**Q.** And the “protease activity, referring” value ([1]; base formulation V., 2.0 wt % component (a), 42 d)?
**A.** 68

**Q.** And the “protease activity, referring” value ([1]; base formulation V., 2.0 wt % component (a), T0)?
**A.** 98

**Q.** Monoethylcitrate [A.6] was tested. Which “protease activity, referring” value [1, 11] did it give?
**A.** 94

**Q.** What about the “protease activity, referring” value [1, 12] of the same molecule?
**A.** 90

**Q.** And the “protease activity, referring” value [1, 13]?
**A.** 81

**Q.** What about the “protease activity, referring” value [1, 14] of the same molecule?
**A.** 73

**Q.** And the “protease activity, referring” value [1, 15]?
**A.** 67

**Q.** And the “protease activity, referring” value [1, 16]?
**A.** 56

**Q.** What about the “protease activity, referring” value [1, 17] of the same molecule?
**A.** 100

**Q.** What about the “protease activity, referring” value [1, 18] of the same molecule?
**A.** 94

**Q.** What about the “protease activity, referring” value [1, 19] of the same molecule?
**A.** 90

**Q.** What about the “protease activity, referring” value [1, 20] of the same molecule?
**A.** 84

**Q.** What about the “protease activity, referring” value [1, 21] of the same molecule?
**A.** 78

**Q.** And the “protease activity, referring” value [1, 22]?
**A.** 70

**Q.** And the “protease activity, referring” value [1, 23]?
**A.** 62

**Q.** What about the “protease activity, referring” value [1, 24] of the same molecule?
**A.** 100

**Q.** What about the “amylase activity, referring to reference formulation at time 0” value (from here on “amylase activity, referring”) [2, 11] of the same molecule?
**A.** 95

**Q.** What about the “amylase activity, referring” value [2, 12] of the same molecule?
**A.** 84

**Q.** And the “amylase activity, referring” value [2, 13]?
**A.** 79

**Q.** What about the “amylase activity, referring” value [2, 14] of the same molecule?
**A.** 70

**Q.** What about the “amylase activity, referring” value [2, 15] of the same molecule?
**A.** 61

**Q.** And the “amylase activity, referring” value [2, 16]?
**A.** 48

**Q.** And the “amylase activity, referring” value [2, 17]?
**A.** 98

**Q.** What about the “amylase activity, referring” value ([3]; 3 d) of the same molecule?
**A.** 96

**Q.** And the “amylase activity, referring” value ([3]; 7 d)?
**A.** 90

**Q.** And the “amylase activity, referring” value ([3]; 14 d)?
**A.** 83

**Q.** And the “amylase activity, referring” value ([3]; 21 d)?
**A.** 74

**Q.** And the “amylase activity, referring” value ([3]; 28 d)?
**A.** 63

**Q.** And the “amylase activity, referring” value ([3]; 42 d)?
**A.** 49

**Q.** What about the “amylase activity, referring” value ([3]; T0) of the same molecule?
**A.** 97
